Like-named read-outs stand apart in the source and are kept apart here.
What was measured:
[1] = Urine and feces excretion after oral modified formula ECa 233 capsules (LC–MS/MS); assay type: in vivo, human (healthy Thai volunteers)
Procedure: This was a single-center, with an open-label, two-sequence of dosages (250 and 500 mg), two-periods of study (single and multiple dose) conducted in fasting condition (Fig. 1). […] All blood samples were centrifuged at 4 °C, 3200 × g for 10 min. […] Feces were also collected from one of the volunteers for detecting the possible presence of any eliminated compounds. Feces samples were collected each time that a volunteer defecated on day 1-3, 4-6 and 7-9 during the study period. These samples were immediately fixed with methanol and prepared by our previously described method of protein precipitation. […] Plasma, urine and fecal samples were then stored at - 80 °C until analysis. Sample preparation was performed by protein precipitation with two internal standards (glycerrhizin and […]) to correct the quantitative analysis of parent compounds and of their metabolites. Briefly, 200 μL of methanol was added followed by vortex mixing with 50 μL of each sample for 10 min and then centrifuged at 12,000 × g, 4 °C, 10 min. […] The MS/MS system was operated using an ESI source in negative mode with MRM.

[2] = Clinical pharmacokinetics in plasma (LC–MS/MS, non-compartmental analysis) after oral modified formula ECa 233 capsules; assay type: in vivo, human (healthy Thai volunteers)
Procedure: This was a single-center, with an open-label, two-sequence of dosages (250 and 500 mg), two-periods of study (single and multiple dose) conducted in fasting condition (Fig. 1). […] All blood samples were centrifuged at 4 °C, 3200 × g for 10 min. […] Feces were also collected from one of the volunteers for detecting the possible presence of any eliminated compounds. Feces samples were collected each time that a volunteer defecated on day 1-3, 4-6 and 7-9 during the study period. These samples were immediately fixed with methanol and prepared by our previously described method of protein precipitation. […] Plasma, urine and fecal samples were then stored at - 80 °C until analysis. […] Then they had another set of blood and urine samples collected similar to the single dose study. […] Sample preparation was performed by protein precipitation with two internal standards (glycerrhizin and […]) to correct the quantitative analysis of parent compounds and of their metabolites. Briefly, 200 μL of methanol was added followed by vortex mixing with 50 μL of each sample for 10 min and then centrifuged at 12,000 × g, 4 °C, 10 min. Quantitative determination of the parent compounds and their active metabolites in plasma and urine were carried out by using liquid chromatography tandem mass spectrometry (LC-MS/MS): LCMS-8060 (Shimadzu Corp. Japan) according to a previously validated and published bioanalytical method. […] The MS/MS system was operated using an ESI source in negative mode with MRM. For m/z transition; […] Non-compartmental analysis was applied to determine pharmacokinetic parameters and performed by PK solutions software (version 2.0). […] The apparent clearance (Cl/F) after oral administration was calculated as Cl/F = Dose/AUC, where F is the absolute oral bioavailability. The apparent volume of distribution (Vd/F) was estimated using Vd/F = Dose/(AUC × kel). The Cmax and Tmax were determined directly from the observed concentration-time curve.

[3] = in vivo; cited from earlier work
[4] = human, plasma, po, 250 mg, plasma, multiple dose oral, Day 7 (T0-72 h), ECa 233 250 mg daily, mean ± SD, n=12, read-out: AUC
[5] = human, plasma, po, 250 mg, plasma, multiple dose oral, Day 7 (T0-72 h), ECa 233 250 mg daily, mean ± SD, n=12, read-out: Cmax
[6] = human, plasma, po, 250 mg, plasma, multiple dose oral, Day 7 (T0-72 h), ECa 233 250 mg daily, median [IQR], n=12, read-out: Tmax
[7] = human, plasma, po, 250 mg, plasma, single dose oral, Day 1 (T0-24 h), ECa 233 250 mg, mean ± SD, n=12, read-out: AUC
[8] = human, plasma, po, 250 mg, plasma, single dose oral, Day 1 (T0-24 h), ECa 233 250 mg, mean ± SD, n=12, read-out: Cmax
[9] = human, plasma, po, 250 mg, plasma, single dose oral, Day 1 (T0-24 h), ECa 233 250 mg, median [IQR], n=12, read-out: Tmax
[10] = human, plasma, po, 500 mg, plasma, multiple dose oral, Day 7 (T0-72 h), ECa 233 500 mg daily, mean ± SD, n=11, read-out: AUC
[11] = human, plasma, po, 500 mg, plasma, multiple dose oral, Day 7 (T0-72 h), ECa 233 500 mg daily, mean ± SD, n=11, read-out: Cmax
[12] = human, plasma, po, 500 mg, plasma, multiple dose oral, Day 7 (T0-72 h), ECa 233 500 mg daily, median [IQR], n=11, read-out: Tmax
[13] = human, plasma, po, 500 mg, plasma, single dose oral, Day 1 (T0-24 h), ECa 233 500 mg, mean ± SD, n=11, read-out: AUC
[14] = human, plasma, po, 500 mg, plasma, single dose oral, Day 1 (T0-24 h), ECa 233 500 mg, mean ± SD, n=11, read-out: Cmax
[15] = human, plasma, po, 500 mg, plasma, single dose oral, Day 1 (T0-24 h), ECa 233 500 mg, median [IQR], n=11, read-out: Tmax
[16] = plasma, oral modified formula ECa 233 capsules

| AUC [2, 4] | Cmax [2, 5] | Tmax [2, 6] | AUC [2, 7] | Cmax [2, 8] | Tmax [2, 9] | AUC [2, 10] | Cmax [2, 11] | Tmax [2, 12] | AUC [2, 13] | Cmax [2, 14] | Tmax [2, 15] | time after dosing at which Cmax was observed [2, 16] | Compound | other results |
| --- | --- | --- | --- | --- | --- | --- | --- | --- | --- | --- | --- | --- | --- | --- |
| 1010 ± 221 ng·h/mL | 78.2 ± 26.4 ng/mL | 1.5 h | 648 ± 117 ng·h/mL | 79.8 ± 19.3 ng/mL | 1.5 h | 1390 ± 333 ng·h/mL | 170 ± 53.8 ng/mL | 1.5 h | 733 ± 150 ng·h/mL | 102 ± 20.8 ng/mL | 1.5 h | 1 to 2 h | C[C@H]1[C@H](C)CC[C@]2(C(=O)O)CC[C@]3(C)C(=CC[C@@H]4[C@@]5(C)C[C@@H](O)[C@H](O)[C@@](C)(CO)[C@@H]5CC[C@]43C)[C@H]12 [ASA, Asiatic acid] | presence in feces ([1]; fecal samples from one volunteer): found in the feces; elimination into urine ([1]; urine 0–24 h after oral dosing of 250 or 500 mg ECa 233): absence of the metabolites in the urine |
|  |  |  |  |  |  |  |  |  |  |  |  |  | Madecassoside [MDS] | excretion (0–72 h) in feces [3]: 24.68%; excretion (0–72 h) in urine [3]: 0.25%; time after dosing at which Cmax was observed ([2]; human, in vivo, po): ≤ 1 h; AUC ([2]; human, in vivo, po, 250 mg): 75.38 ± 26.60 ng·h/mL; Cmax ([2]; human, in vivo, po, 250 mg): 9.57 ± 3.34 ng/mL; Tmax ([2]; human, in vivo, po, 250 mg): 1 [0.5] h; AUC ([2]; human, in vivo, po, 500 mg): 141.16 ± 41.15 ng·h/mL; Cmax ([2]; human, in vivo, po, 500 mg): 12.73 ± 2.73 ng/mL; Tmax ([2]; human, in vivo, po, 500 mg): 1 [0.5] h |
| 437 ± 175 ng·h/mL | 61.4 ± 20.5 ng/mL | 2 h | 410 ± 100 ng·h/mL | 66.1 ± 17.1 ng/mL | 1.5 h | 516 ± 157 ng·h/mL | 99.8 ± 27.6 ng/mL | 1.5 h | 476 ± 117 ng·h/mL | 72.3 ± 16.3 ng/mL | 1.5 h | 1 to 2 h | C[C@H]1[C@H](C)CC[C@]2(C(=O)O)CC[C@]3(C)C(=CC[C@@H]4[C@@]5(C)C[C@@H](O)[C@H](O)[C@@](C)(CO)[C@@H]5[C@H](O)C[C@]43C)[C@H]12 [MDA, Madecassic acid] |  |
